# Values quoted from earlier work, collected in PMC9475448, “What a difference a methylene makes: replacing Glu with Asp or Aad in the Lys-urea-Glu pharmacophore of PSMA-targeting radioligands to reduce kidney and salivary gland uptake” (Theranostics, 2022).
# System: parotid gland
# Settings: in vivo; cited from earlier work
substance,measurement,value
botulinum toxin A,Reduction in SUVmean of the treated parotid gland in [68Ga]Ga-PSMA-11 scan vs baseline,up to 64%
